In US10829481B2, “Benzimidazole derivatives as modulators of ROR-gamma” (Vitae Pharmaceuticals, LLC, priority 2016, dated 2020):

Assays:
[1] = target: recombinant RORγ Ligand Binding Domain (LBD) protein (Homo sapiens (Human), UniProt P51449); assay: Radio-Ligand RORγ Binding Assay (Assay 1); conditions: competition with 25-hydroxy [26,27-3H]-cholesterol, SPA
Procedure, shortened: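 Scintillation proximity competition against 25-hydroxy [26,27-^3H]-cholesterol (8.6 nM solution) for 6×His-GST-tagged RORγ LBD (24 nM solution) in HEPES pH 7.4 with CHAPS, β-octylglucopyranoside and DTT; semi-log compound dilutions, ~1 h total at rt with poly-Lys YSi beads. IC50 from four-parameter fit; Ki derived from [RL] and radioligand KD.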

[2] = target: full-length RORγt in Jurkat cells (Homo sapiens (Human), UniProt P51449); assay: RORγt 5×RORE Assay in Jurkat Cells (Assay 2); type: cell-based; conditions: 5×RORE Nanoluc luciferase reporter
full-length RORγt in Jurkat cells, sequence (P51449 other isoform, or with tags, fused parts or gaps): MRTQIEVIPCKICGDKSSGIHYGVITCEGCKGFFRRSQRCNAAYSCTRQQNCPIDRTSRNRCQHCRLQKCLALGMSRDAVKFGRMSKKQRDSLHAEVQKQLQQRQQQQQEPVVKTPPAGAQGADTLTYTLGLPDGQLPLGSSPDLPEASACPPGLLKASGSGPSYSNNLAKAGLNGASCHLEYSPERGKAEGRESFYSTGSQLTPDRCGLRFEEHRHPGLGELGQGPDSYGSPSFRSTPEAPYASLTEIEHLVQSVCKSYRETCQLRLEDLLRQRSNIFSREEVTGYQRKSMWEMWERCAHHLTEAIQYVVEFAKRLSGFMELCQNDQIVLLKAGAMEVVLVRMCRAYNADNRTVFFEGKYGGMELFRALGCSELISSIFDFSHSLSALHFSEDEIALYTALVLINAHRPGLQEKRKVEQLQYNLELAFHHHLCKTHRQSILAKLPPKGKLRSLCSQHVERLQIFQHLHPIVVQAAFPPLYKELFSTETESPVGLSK

recombinant RORγ Ligand Binding Domain (LBD) protein, sequence (P51449 269-508): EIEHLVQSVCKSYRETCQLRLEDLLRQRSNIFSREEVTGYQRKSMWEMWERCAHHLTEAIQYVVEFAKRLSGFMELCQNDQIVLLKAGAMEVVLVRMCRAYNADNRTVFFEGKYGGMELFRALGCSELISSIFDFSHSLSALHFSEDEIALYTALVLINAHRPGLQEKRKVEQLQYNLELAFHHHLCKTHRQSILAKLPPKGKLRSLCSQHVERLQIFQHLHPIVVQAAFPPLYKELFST

Structure (SMILES)	Ki [1]	IC50 [2]
CCS(=O)(=O)c1ccc(CNC(=O)c2ccc3c(c2)nc(C(F)(F)F)n3Cc2cccc(OC)c2F)cc1 [I-136, N-(4-(ethylsulfonyl)benzyl)-1-(2-fluoro-3-methoxybenzyl)-2-(trifluoromethyl)-1H-benzo[d]imidazole-5-carboxamide]	< 100 nM	< 100 nM
CCS(=O)(=O)c1ccc(CNC(=O)c2ccc3c(c2)nc(C(F)(F)F)n3Cc2cccc3cnn(C)c23)cc1 [I-137, N-(4-(ethylsulfonyl)benzyl)-1-((1-methyl-1H-indazol-7-yl)methyl)-2-(trifluoromethyl)-1H-benzo[d]imidazole-5-carboxamide]	< 100 nM	< 100 nM
CCS(=O)(=O)c1ccc(CNC(=O)c2ccc3c(c2)nc(C(F)(F)F)n3Cc2nc(C)cc(C(F)(F)F)n2)cc1 [I-138, N-(4-(ethylsulfonyl)benzyl)-1-((4-methyl-6-(trifluoromethyl)pyrimidin-2-yl)methyl)-2-(trifluoromethyl)-1H-benzo[d]imidazole-5-carboxamide]	< 100 nM	100 to 1000 nM
CCS(=O)(=O)c1ccc(CNC(=O)c2ccc3c(c2)nc(C(F)(F)F)n3Cc2cccc3cn(C)nc23)cc1 [I-139, N-(4-(ethylsulfonyl)benzyl)-1-((2-methyl-2H-indazol-7-yl)methyl)-2-(trifluoromethyl)-1H-benzo[d]imidazole-5-carboxamide]	< 100 nM	< 100 nM
CCS(=O)(=O)c1ccc(CNC(=O)c2ccc3c(c2)nc(C(F)(F)F)n3Cc2cccc3c2cnn3C)cc1 [I-141, N-(4-(ethylsulfonyl)benzyl)-1-((1-methyl-1H-indazol-4-yl)methyl)-2-(trifluoromethyl)-1H-benzo[d]imidazole-5-carboxamide]	> 1000 nM	100 to 1000 nM
CCS(=O)(=O)c1ccc(CNC(=O)c2ccc3c(c2)nc(C(F)(F)F)n3Cc2cccc3nn(C)cc23)cc1 [I-143, N-(4-(ethylsulfonyl)benzyl)-1-((2-methyl-2H-indazol-4-yl)methyl)-2-(trifluoromethyl)-1H-benzo[d]imidazole-5-carboxamide]	< 100 nM	100 to 1000 nM
CCS(=O)(=O)c1ccc(CNC(=O)c2ccc3c(c2)nc(C(F)(F)F)n3Cc2cccc3ocnc23)cc1 [I-147, 1-(benzo[d]oxazol-4-ylmethyl)-N-(4-(ethylsulfonyl)benzyl)-2-(trifluoromethyl)-1H-benzo[d]imidazole-5-carboxamide]	< 100 nM	100 to 1000 nM
CCS(=O)(=O)c1ccc(CNC(=O)c2ccc3c(c2)nc(C2CC2)n3Cc2cccc3c2OCCO3)cc1 [I-148, 2-cyclopropyl-1-((2,3-dihydrobenzo[b][1,4]dioxin-5-yl)methyl)-N-(4-(ethylsulfonyl)benzyl)-1H-benzo[d]imidazole-5-carboxamide]	< 100 nM	> 1000 nM
CCS(=O)(=O)c1ccc(CNC(=O)c2ccc3c(c2)nc(C2CC2)n3[C@H](C)c2cccc3c2OC(F)(F)O3)cc1 [I-149, (R)-2-cyclopropyl-1-(1-(2,2-difluorobenzo[d][1,3]dioxol-4-yl)ethyl)-N-(4-(ethylsulfonyl)benzyl)-1H-benzo[d]imidazole-5-carboxamide]	< 100 nM	< 100 nM
CCS(=O)(=O)c1ccc(CNC(=O)c2ccc3c(c2)nc(C)n3Cc2ccccc2)cc1 [I-150, 1-benzyl-N-(4-(ethylsulfonyl)benzyl)-2-methyl-1H-benzo[d]imidazole-5-carboxamide]	100 to 1000 nM	> 1000 nM
CCS(=O)(=O)c1ccc(CNC(=O)c2ccc3c(c2)nc(C(F)(F)F)n3Cc2cccc3nonc23)cc1 [I-151, 1-(benzo[c][1,2,5]oxadiazol-4-ylmethyl)-N-(4-(ethylsulfonyl)benzyl)-2-(trifluoromethyl)-1H-benzo[d]imidazole-5-carboxamide]	< 100 nM	< 100 nM
CCS(=O)(=O)c1ccc(CNC(=O)c2ccc3c(c2)nc(C(F)(F)F)n3Cc2cccc3ncoc23)cc1 [I-152, 1-(benzo[d]oxazol-7-ylmethyl)-N-(4-(ethylsulfonyl)benzyl)-2-(trifluoromethyl)-1H-benzo[d]imidazole-5-carboxamide]	< 100 nM	< 100 nM
